Assay results taken from patent US20120010292A1, “MODIFICATION I OF 4-(PHENYL)ETHYL]-AMINO}METHYL)BENZOIC ACID” (BAYER SCHERING PHARMA AKTIENGESELLSCHAFT, priority 2008, published 2012).

Test: Stability of the crystal modification (thermodynamic and storage stability)
Assay type: physicochemical
Conditions: for thermodynamic stability of the crystal modification: solid form of the compound of the formula (I)

SMILES | storage stability (even after processing to suspensions) | thermodynamic stability of the crystal modification
O=C(O)CCCCN(CCc1ccccc1OCc1ccc(CCc2ccccc2)cc1)Cc1ccc(C(=O)O)cc1 [modification I, 4-({(4-carboxybutyl)[2-(2-{[4-(2-phenylethyl)benzyl]oxy}phenyl)ethyl]amino}-methyl)benzoic acid] | storage-stable | thermodynamically stable
O=C(O)CCCCN(CCc1ccccc1OCc1ccc(CCc2ccccc2)cc1)Cc1ccc(C(=O)O)cc1 [modification IV, 4-({(4-Carboxybutyl)[2-(2-{[4-(2-phenylethyl)benzyl]oxy}phenyl)ethyl]amino}methyl)benzoic acid] |  | metastable
